“Also recorded” adds a separate entry of the source.

The test system of assay [1] is MDA-MB-231 breast cancer cells. Briefly: In vitro wound healing assay. The class given is cell-based, human. As to conditions: 3 µM, 25 h, serum-containing growth medium. Here is the method:
Image J was used to automatically quantify FAK-containing focal adhesions due to local maxima of fluorescence intensity in the GFP-channel (5 to 70 pixel). The number of cells was automatically counted in the Hoechst channel. To test reproducibility of the system 40 control wells were quantified wherein four positions for each well were imaged. […] GFP-FAK mouse embryonic fibroblasts were seeded on fibronectin and incubated for 1 h with the indicated concentrations of the small compounds, respectively. […] GFP-FAK mouse embryonic fibroblasts were seeded on fibronectin and serum-starved overnight. The indicated concentrations of Mb31 were applied for 30 min. Cells were lysed and analyzed for paxillin and FAK protein level as well as FAK Tyr397 phosphorylation. […] The purified kinase domain of FAK was incubated with increasing amounts of Mb31 for 1 h at 30°C together with poly-Glu-Tyr as a FAK substrate. […] Serum-starved GFP-FAK mouse embryonic fibroblasts were stimulated with normal growth medium and incubated for 5 h with the indicated concentrations of the small molecule compounds, respectively. Cell viability was assessed by MTT assay. […] GFP-FAK MEFs were seeded on fibronectin and serum-starved overnight. Migration was stimulated by replacing the medium with normal growth medium. Migration of single cells was tracked for 8 h in 30 min intervals. Migration was recorded from cells that were cultured without serum (A), with serum (B) or with serum in the presence of 3 µM Mb31 (C). […] (A) GFP-FAK MEFs were seeded and serum-starved as in Figure 10. Cell migration was stimulated with normal growth medium and single cells were tracked for 5 h. (B) Mb31 was added and the same cells were tracked for additional 5 h. (C) Mean velocities of differently treated cells were plotted over time. […] NIH-v-Src fibroblasts were seeded on 2 µg/ml FN in DMEM/0.5%BSA and stimulated with 10 ng/ml EGF or kept unstimulated. […] Mouse embryonic fibroblasts (MEFs) were transfected with talin-mCherry and talin dynamics analyzed in focal adhesions using fluorescence recovery after photobleaching (FRAP). Cells were left untreated (A) or treated with 10 µM of Mb31 (B). In untreated cells, the mCherry intensity recovered, indicating replacement of bleached by non-bleached talin and therefore turnover of talin at focal adhesions. […] (C) Wound closure was microscopically analyzed and evaluated using ImageJ software.
To determine if the migration of transformed cells can be blocked by FLocker1 and related compounds, human breast carcinoma cells (MDA-MB-231) were used in in vitro wound healing assays. […] The ability of the cells to migrate and close the wound space was monitored by microscopy and quantified (Figure 18B and C).

The next assay has as its target T1, FAK (Mus musculus, UniProt P34152).
T1 construct: expressed in transfected cells; host or cells: FAK-/- (p53-/-) mouse embryonic fibroblasts stably re-expressing GFP-FAK
Briefly: Reversibility of FAK displacement after compound washout. The class given is cell-based. As to conditions: 4 µM for 1 h. Here is the method: In order to analyze whether FAK or its binding partner paxillin are degraded after displacement, serum-starved GFP-FAK MEFs were stimulated with normal growth medium in presence of increasing concentrations of Mb31. After 30 min cells were lysed and protein levels were determined by immunoblotting. […] In line with this, in vitro activity of purified FAK kinase domain was not altered in presence of Mb31 (Figure 8). […] Considering, that paxillin and FAK are not degraded in Mb31 treated GFP-FAK MEFs the inventors further investigated whether FAK displacement is reversible. GFP-FAK MEFs were seeded on fibronectin and treated with 4 µM Mb31 for 1 h. Following compound washout, cells were incubated for 1 h and fixed. […] To strengthen the hypothesis of FAK relocalization, in a second approach de novo protein synthesis was blocked with cycloheximide. Again, FAK containing focal adhesions could be clearly identified in the cell periphery.
MEFs were seeded on fibronectin fragment (4 µg/ml in PBS) in multi-well plates (Greiner Bio-One) and incubated for 4 h to allow spreading. Cells were fixed and permeabilized with MeOH at -20°C after pre-fixation with 4% paraformaldehyde. […] Cells were washed again with PBS to remove excess antibodies and were imaged using a Leica AF6000LX fluorescence microscope. […]

The test system of another assay is focal adhesion proteins. The experiment in a line: Localization of focal adhesion proteins (fluorescent fusion proteins) in presence of Mb31. The class given is cell-based, Mouse. The following applies: 10 µM Mb31, 30 min; value is the protein. How it is done: In order to investigate the kinetics of FAK displacement at focal adhesions a time series was performed. GFP-FAK MEFs were treated with 20 µM of Mb31 or Mb36 and fixed after different time points. […] Mb36 kinetic was slightly slower with FAK delocalization after 20 min. In addition, GFP-FAK MEFs were treated with increasing concentrations of Mb31 or Mb36 to determine the minimum concentration required to interfere with FAK localization. Untreated or solvent (DMSO) treated cells show the expected localization of FAK at focal adhesions. […] Already 2 µM of Mb31 were sufficient to induce FAK displacement. […] Due to the faster kinetic and lower IC50 compared to Mb36 further studies were mainly performed using Mb31. […] In contrast, vinculin localization and the focal adhesion localization of talin, α-actinin, and zyxin is not disturbed (Figure 5 and Table 1).
Mouse embryonic fibroblasts expressing the indicated proteins as fluorescent fusion proteins were incubated with 10 µM Mb31 or solvent alone for 30 min. Afterwards, the cells were fixed and the localization of the focal adhesion proteins was analyzed microscopically.

T1 sequence (P34152 whole entry): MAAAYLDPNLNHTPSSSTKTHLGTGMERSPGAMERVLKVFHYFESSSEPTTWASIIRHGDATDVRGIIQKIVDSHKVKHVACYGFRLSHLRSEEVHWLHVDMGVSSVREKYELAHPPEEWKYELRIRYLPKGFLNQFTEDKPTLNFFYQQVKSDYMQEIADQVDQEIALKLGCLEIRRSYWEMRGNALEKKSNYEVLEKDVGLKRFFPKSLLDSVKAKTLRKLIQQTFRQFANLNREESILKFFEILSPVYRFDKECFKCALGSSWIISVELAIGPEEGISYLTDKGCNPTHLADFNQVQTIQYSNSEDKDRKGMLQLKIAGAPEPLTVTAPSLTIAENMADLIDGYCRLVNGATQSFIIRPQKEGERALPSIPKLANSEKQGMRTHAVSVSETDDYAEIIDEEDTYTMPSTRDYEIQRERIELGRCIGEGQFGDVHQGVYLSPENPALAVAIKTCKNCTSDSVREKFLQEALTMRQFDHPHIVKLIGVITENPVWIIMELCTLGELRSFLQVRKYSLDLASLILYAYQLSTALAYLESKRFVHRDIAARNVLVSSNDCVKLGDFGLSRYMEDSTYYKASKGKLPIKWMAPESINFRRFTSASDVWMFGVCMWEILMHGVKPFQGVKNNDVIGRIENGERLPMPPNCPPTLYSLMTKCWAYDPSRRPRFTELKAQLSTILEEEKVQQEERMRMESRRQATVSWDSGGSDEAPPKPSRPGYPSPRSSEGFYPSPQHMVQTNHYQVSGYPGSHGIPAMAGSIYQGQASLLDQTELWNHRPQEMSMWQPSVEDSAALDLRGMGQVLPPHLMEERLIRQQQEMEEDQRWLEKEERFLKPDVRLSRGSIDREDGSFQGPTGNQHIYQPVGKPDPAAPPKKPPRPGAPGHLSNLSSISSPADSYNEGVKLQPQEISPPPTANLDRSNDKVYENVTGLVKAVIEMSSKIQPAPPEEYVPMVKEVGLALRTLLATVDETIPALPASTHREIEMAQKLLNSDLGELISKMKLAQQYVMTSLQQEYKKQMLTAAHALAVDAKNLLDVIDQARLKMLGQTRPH

On to `O=[N+]([O-])C=Cc1cc(Br)cs1` [FootLocker 1, 4-bromo-2-(2-nitrovinyl)thiophene], for which the “migration of cancer cells / wound closure” value in assay [1] was “retarded the migration of the cancer cells”. For the same molecule, the “FAK displacement in treated cells” value on FAK (before washout) is recorded as “completely displaced”. Besides, the “FAK localization after compound washout” value on FAK (washout, 1 h incubation) was “FAK relocalized to focal adhesions”. For the same molecule, in the assay with focal adhesion proteins, the “Displaced from focal adhesions” value is “Focal adhesion kinase (FAK) and Paxillin and Grb2 and CRKII”; the “No effect on localization” value is on record as “Talin; also recorded: α-actinin; also recorded: Vinculin; also recorded: Zyxin”.

These data come from EP2982368A1, “Small molecule compounds displacing focal adhesion core components” (Universität Konstanz, priority 2014, dated 2016).
